≈ marks a conversion by molar mass, not a printed value.
Columns and labels:
[1] = molecular target: T1, Enoyl-[acyl-carrier-protein] reductase [NADPH] FabI (Staphylococcus aureus) (UniProt Q6GI75); assay: Inhibition of N-terminal his 6 tagged Staphylococcus aureus Fabi (1 to […] residues) expressed in Escherichia coli BL21 at 1 uM incubated for 30 mins in presence of NADPH by fluorescence based microplate reader analysis relative to control
T1 sequence (whole entry): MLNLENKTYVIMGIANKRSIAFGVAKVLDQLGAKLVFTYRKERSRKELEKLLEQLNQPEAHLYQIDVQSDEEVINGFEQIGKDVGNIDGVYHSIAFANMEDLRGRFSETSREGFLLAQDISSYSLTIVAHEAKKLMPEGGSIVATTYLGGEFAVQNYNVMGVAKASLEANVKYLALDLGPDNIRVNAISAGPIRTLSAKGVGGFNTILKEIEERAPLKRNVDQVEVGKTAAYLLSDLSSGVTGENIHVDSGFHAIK

[2] = system: Staphylococcus aureus; assay: Antimicrobial activity against methicillin-susceptible Staphylococcus aureus ATCC29213 measured after 24 hrs by CLSI protocol based microdilution method; format: functional
[3] = system: Staphylococcus aureus; assay: Antimicrobial activity against […] Staphylococcus aureus ATCC43300 measured after 24 hrs by CLSI protocol based microdilution method; format: functional
[4] = molecular target: T1, Enoyl-[acyl-carrier-protein] reductase [NADPH] FabI (Staphylococcus aureus); assay: Inhibition of N-terminal his 6 tagged Staphylococcus aureus Fabi (1 to […] residues) expressed in Escherichia coli BL21 at 10 uM incubated for 30 mins in presence of NADPH by fluorescence based microplate reader analysis relative to control
[5] = system: Staphylococcus aureus; assay: Antimicrobial activity against […] Staphylococcus aureus ATCC33591 measured after 24 hrs by CLSI protocol based microdilution method; format: functional
[6] = system: Pseudomonas aeruginosa; assay: Antimicrobial activity against Pseudomonas aeruginosa PAO1 measured after 24 hrs by CLSI protocol based microdilution method; format: functional
[7] = system: Escherichia coli; assay: Antimicrobial activity against Escherichia coli ATCC25922 measured after 24 hrs by CLSI protocol based microdilution method; format: functional
[8] = system: Enterococcus faecalis; assay: Antimicrobial activity against Enterococcus faecalis ATCC29212 measured after 24 hrs by CLSI protocol based microdilution method; format: functional
[9] = system: Staphylococcus aureus; assay: Antimicrobial activity against […] Staphylococcus aureus NRS271 measured after 24 hrs by CLSI protocol based microdilution method; format: functional
[10] = system: Staphylococcus aureus; assay: Antimicrobial activity against […] Staphylococcus aureus USA300 measured after 24 hrs by CLSI protocol based microdilution method; format: functional
[11] = system: Enterococcus faecium; assay: Antimicrobial activity against Enterococcus faecium ATCC19434 measured after 24 hrs by CLSI protocol based microdilution method; format: functional
[12] = system: Candida albicans; assay: Antimicrobial activity against Candida albicans SC5314 measured after 48 hrs by CLSI protocol based microdilution method; format: functional
[13] = system: Acinetobacter baumannii; assay: Antimicrobial activity against Acinetobacter baumannii ATCC19606 measured after 24 hrs by CLSI protocol based microdilution method; format: functional
[14] = system: Staphylococcus aureus; assay: Antimicrobial activity against methicillin-susceptible Staphylococcus aureus ATCC25923 measured after 24 hrs by CLSI protocol based microdilution method; format: functional

SMILES | inhibition [1] [%] | MIC [2] [µg/mL] | MIC [3] [µg/mL] | inhibition [4] [%] | MIC [5] [µg/mL] | MIC [6] [µg/mL] | MIC [7] [µg/mL] | MIC [8] [µg/mL] | MIC [9] [µg/mL] | MIC [10] [µg/mL] | MIC [11] [µg/mL] | MIC [12] [µg/mL] | MIC [13] [µg/mL] | MIC [14] [µg/mL]
O=C1CC(c2nc3ccccc3[nH]2)CN1c1cccc(Cl)c1F (stereo not given) | 1.7 | > 32 | > 32 | 16.9 | > 32 | > 32 | > 32 | > 32 | > 32 | > 32 | > 32 | > 32 | > 32 | –
Cn1c(C2CC(=O)N(c3ccc(Br)c(Br)c3)C2)nc2ccccc21 (stereo not given) | 4.8 | > 32 | > 32 | 45.4 | > 32 | > 32 | > 32 | > 32 | > 32 | > 32 | > 32 | > 32 | > 32 | > 32
COc1ccc(N2CC(c3nc4ccccc4n3C)CC2=O)cc1OC (stereo not given) | 1.6 | > 32 | > 32 | 22.5 | > 32 | > 32 | > 32 | > 32 | > 32 | > 32 | > 32 | > 32 | > 32 | > 32
Cn1c(C2CC(=O)N(c3ccccc3-c3ccccc3)C2)nc2ccccc21 (stereo not given) | 2.3 | > 32 | > 32 | 5.8 | > 32 | > 32 | > 32 | > 32 | > 32 | > 32 | > 32 | > 32 | > 32 | > 32
Cn1c(C2CC(=O)N(c3ccccc3)C2)nc2ccccc21 (stereo not given) | 8.9 | > 32 | > 32 | 56.2 | > 32 | > 32 | > 32 | > 32 | > 32 | > 32 | > 32 | > 32 | > 32 | > 32
COc1cccc(OC)c1C(=O)N[C@@H]1C(=O)N2[C@@H]1SC(C)(C)[C@@H]2C(=O)O [METHICILLIN] | – | 2 (≈ 5.26 µM) | > 32 | – | > 32 | – | – | – | > 32 | > 32 | – | – | – | 2 (≈ 5.26 µM)
Oc1ccc2ccccc2c1SSc1c(O)ccc2ccccc12 | – | – | – | > 70 | – | – | – | – | – | – | – | – | – | –
Cn1c(C2CC(=O)N(Cc3ccccc3)C2)nc2ccccc21 (stereo not given) | 4.6 | > 32 | > 32 | 27.9 | > 32 | > 32 | > 32 | > 32 | > 32 | > 32 | > 32 | > 32 | > 32 | > 32
Cc1cccc(NC(=O)c2cccc(NC(=O)c3nc4ccccc4n3C)c2)c1C | 3.7 | > 32 | > 32 | 5 | > 32 | > 32 | > 32 | > 32 | > 32 | > 32 | > 32 | > 32 | > 32 | > 32
O=C1C=CC(=O)c2ccccc21 | – | – | – | > 70 | – | – | – | – | – | – | – | – | – | –
Cc1cccc(C(=O)NCCNC(=O)CCc2nc3ccccc3n2C)c1C | 5.2 | > 32 | > 32 | 25.6 | > 32 | > 32 | > 32 | > 32 | > 32 | > 32 | > 32 | > 32 | > 32 | > 32
Cn1c(C2CC(=O)N(c3ccc(N4CCOCC4)cc3)C2)nc2ccccc21 (stereo not given) | 8.2 | > 32 | > 32 | 7.7 | > 32 | > 32 | > 32 | > 32 | > 32 | > 32 | > 32 | > 32 | > 32 | > 32
Cc1cccc(C(=O)NCCNC(=O)c2nc3ccccc3n2C)c1C | 1.7 | > 32 | > 32 | 3.7 | > 32 | > 32 | > 32 | > 32 | > 32 | > 32 | > 32 | > 32 | > 32 | > 32
CN(C)c1ccc2nc3c(C(=O)O)cc(O)c(O)c3[o+]c2c1 | – | – | – | > 70 | – | – | – | – | – | – | – | – | – | –
Cc1c(Br)cccc1N1C[C@H](c2nc3ccccc3n2C)CC1=O | – | > 32 | > 32 | – | > 32 | – | – | – | > 32 | > 32 | – | – | – | > 32
Cn1c(CCC(=O)NCCC(=O)NCc2ccccc2)nc2ccccc21 | 7.5 | > 32 | > 32 | 24.7 | > 32 | > 32 | > 32 | > 32 | > 32 | > 32 | > 32 | > 32 | > 32 | > 32
COCCCOc1ccc(C)c(C[S+]([O-])c2nc3ccccc3[nH]2)n1 (stereo not given) | – | – | – | > 70 | – | – | – | – | – | – | – | – | – | –
Cn1c(C2CC(=O)N(c3ccc(F)c(F)c3)C2)nc2ccccc21 (stereo not given) | 2.7 | > 32 | > 32 | 40.1 | > 32 | > 32 | > 32 | > 32 | > 32 | > 32 | > 32 | > 32 | > 32 | > 32
Cn1c(CCC(=O)Nc2ccccc2)nc2ccccc21 | 7.7 | > 32 | > 32 | 7.8 | > 32 | > 32 | > 32 | > 32 | > 32 | > 32 | > 32 | > 32 | > 32 | > 32
Cc1cccc(NC(=O)CCNC(=O)CCc2nc3ccccc3n2C)c1C | 6.9 | > 32 | > 32 | 33.2 | > 32 | > 32 | > 32 | > 32 | > 32 | > 32 | > 32 | > 32 | > 32 | > 32
Cn1ccc(N2CC(c3nc4ccccc4n3C)CC2=O)n1 (stereo not given) | 5.1 | > 32 | > 32 | 4.3 | > 32 | > 32 | > 32 | > 32 | > 32 | > 32 | > 32 | > 32 | > 32 | > 32
Cn1c(C2CC(=O)N(c3cccc(-c4ccccc4)c3)C2)nc2ccccc21 (stereo not given) | 3.5 | > 32 | > 32 | 10.1 | > 32 | > 32 | > 32 | > 32 | > 32 | > 32 | > 32 | > 32 | > 32 | > 32
Cn1c(CCC(=O)NCc2ccccc2)nc2ccccc21 | 7.9 | > 32 | > 32 | 6.1 | > 32 | > 32 | > 32 | > 32 | > 32 | > 32 | > 32 | > 32 | > 32 | > 32
Cn1c(C(=O)NCCC(=O)NCc2ccccc2)nc2ccccc21 | 5.7 | > 32 | > 32 | 8.6 | > 32 | > 32 | > 32 | > 32 | > 32 | > 32 | > 32 | > 32 | > 32 | > 32
O=C(N/N=C/c1cc(O)c(O)cc1O)c1cc2ccccc2cc1O | – | – | – | > 70 | – | – | – | – | – | – | – | – | – | –
CCCCCC/C=C/CCCCCCCc1cccc(O)c1C(=O)O | – | – | – | > 70 | – | – | – | – | – | – | – | – | – | –
O=c1sn(-c2cccc3ccccc23)c(=O)n1Cc1ccccc1 | – | – | – | > 70 | – | – | – | – | – | – | – | – | – | –

From ChEMBL document CHEMBL5500393, “Discovery and Optimization of Novel SaFabI Inhibitors as Specific Therapeutic Agents for MRSA Infection” (J Med Chem, 2024)
